{"source": "paper PMC11938129", "about": "“Gravacin as an inhibitor of the auxin transport-activating protein kinase D6PK in Arabidopsis” (Frontiers in Plant Science, 2025)", "key": {"D6PK (His-D6PK) [1]": {"molecular_target": "T1, D6PK (His-D6PK) (Arabidopsis thaliana, UniProt Q9FG74)", "T1 construct": "His-tagged recombinant D6PK, expressed in E. coli BL21 (DE3), Ni-NTA purified", "T1 sequence (Q9FG74 1-498)": "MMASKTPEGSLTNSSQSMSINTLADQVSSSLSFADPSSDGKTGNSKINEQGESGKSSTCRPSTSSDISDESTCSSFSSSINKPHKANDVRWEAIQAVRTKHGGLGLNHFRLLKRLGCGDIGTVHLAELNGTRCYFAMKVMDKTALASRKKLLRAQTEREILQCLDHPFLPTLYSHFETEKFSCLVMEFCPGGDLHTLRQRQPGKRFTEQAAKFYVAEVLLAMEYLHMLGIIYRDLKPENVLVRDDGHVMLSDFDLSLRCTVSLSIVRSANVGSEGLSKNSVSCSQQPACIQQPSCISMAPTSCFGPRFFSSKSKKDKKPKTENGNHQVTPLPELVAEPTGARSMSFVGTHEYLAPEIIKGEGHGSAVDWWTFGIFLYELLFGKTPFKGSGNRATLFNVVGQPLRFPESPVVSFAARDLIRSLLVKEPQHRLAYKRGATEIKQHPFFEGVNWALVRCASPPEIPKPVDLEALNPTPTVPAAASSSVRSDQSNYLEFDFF", "test": "in vitro kinase assay, […]ATP autoradiography of His-PIN1-HL phosphorylation", "type": "biochemical", "settings": "partial, dose-dependent inhibition; substrate His-PIN1-HL; 10 mM ATP (so in the source), 10 mM MgCl2, 1 mM DTT, Tris-HCl pH 7.5, 25 °C, 60 min"}, "D6PK (His-D6PK) [2]": {"molecular_target": "T1, D6PK (His-D6PK)", "test": "surface plasmon resonance (Biacore 8K), steady state affinity model", "type": "binding"}}}
{"smiles": "O=C(O)C=Cc1ccc(-c2ccc(Cl)c(Cl)c2)o1", "note": "[gravacin, 3-(5-[3,4-dichlorophenyl]-2-furyl)-acrylic acid]", "values": [{"measurement": "in vitro kinase assay, [32P]ATP autoradiography of His-PIN1-HL phosphorylation", "setting": "D6PK (His-D6PK) [1]", "value": "His-D6PK-induced phosphorylation of His-PIN1 was partially suppressed by gravacin in a dose-dependent manner"}, {"measurement": "Kd", "setting": "D6PK (His-D6PK) [2]", "value": "~334", "unit": "µM"}]}
